In patent US4668679A, “Aminoethyl-pyridine and pyrazine derivatives” (Riom Laboratories C.E.R.M., priority 1983, dated 1987):

Tested on: Bronchospasm
Test: antibronchoconstrictory activity, technique of Konzett and Rossler (histamine bronchospasm, i.v.)
Format: in vivo, tricoloured guinea pigs
Conditions: guinea pig; for Duration: duration of action
Method: The antibronchoconstrictory activity was investigated on tricoloured guinea pigs according to the technique of Konzett and Rossler. The animals are anaesthetised with ethylcarbamate and, after tracheotomy, are artifically respirated at constant volume; whereby the intratracheal pressure is recorded continuously. Histamine (5 μg.kg^-1, i.v.) is administered before and at various time-intervals after treatment with the substance to be studied. The activity of the product administered intravenously is evaluated by comparing the amplitudes of the bronchospasms before and after treatment and calculating the percentage variation and the duration of action.

[1] = Cavia porcellus, iv, dose 5 mg, histamine 5 μg/kg i.v.
[2] = dose 5 mg, histamine 5 μg/kg i.v.
[3] = Cavia porcellus, iv, dose 0.05 mg, histamine 5 μg/kg i.v.
[4] = dose 0.05 mg, histamine 5 μg/kg i.v.
[5] = Cavia porcellus, iv, dose 0.25 mg, histamine 5 μg/kg i.v.
[6] = dose 0.25 mg, histamine 5 μg/kg i.v.
[7] = Cavia porcellus, iv, dose 0.1 mg, histamine 5 μg/kg i.v.
[8] = dose 0.1 mg, histamine 5 μg/kg i.v.

## COC(CN1CCCC1)c1ccc(C)nc1 (stereo not drawn) [Compound 1]
[1]
  inhibition in vivo at 5 mg: 56.5%
[2]
  Duration: > 60 min

## COC(CN1CCN(c2ccc(F)cc2)CC1)c1ccc(C)nc1 (stereo not drawn) [Compound 2]
[3]
  inhibition in vivo at 0.05 mg: 85%
[4]
  Duration: > 120 min
Histamine bronchospasm
  antibronchoconstrictory activity (intensity and duration of action), in words: excellent activity

## COC(CN1CCOCC1)c1ccc(C)nc1 (stereo not drawn) [Compound 3]
[1]
  inhibition in vivo at 5 mg: 50%
[2]
  Duration: > 15 min

## COC(CN1CCN(c2ccccc2)CC1)c1ccc(C)nc1 (stereo not drawn) [Compound 6, 1-[2-Methoxy-2-(6-methyl-3-pyridyl)-ethyl]-4-phenyl-piperazine]
Cavia porcellus, iv, dose 0.025 mg, histamine 5 μg/kg i.v.
  inhibition in vivo at 0.025 mg: 90%
Cavia porcellus, iv, histamine bronchospasm
  ED50: 1.9 µg/kg
Dose 0.025 mg, histamine 5 μg/kg i.v.
  Duration: > 120 min
Histamine bronchospasm
  antibronchoconstrictory activity (intensity and duration of action), in words: excellent activity

## COc1ccccc1N1CCN(CC(OC)c2ccc(C)nc2)CC1 (stereo not drawn) [Compound 7, 1-[2-Methoxy-2-(6-methyl-3-pyridyl)-ethyl]-4-(2-methoxy-phenyl)-piperazine]
[5]
  inhibition in vivo at 0.25 mg: 97%
[6]
  Duration: > 60 min
Histamine bronchospasm
  antibronchoconstrictory activity (intensity and duration of action), in words: excellent activity

## CCOc1ccccc1N1CCN(CC(OC)c2ccc(C)nc2)CC1 (stereo not drawn) [Compound 8]
[7]
  inhibition in vivo at 0.1 mg: 95%
[8]
  Duration: > 15 min
Histamine bronchospasm
  antibronchoconstrictory activity (intensity and duration of action), in words: excellent activity

## COC(CN1CCN(c2ccccc2)CC1)c1cnc(C)cn1 (stereo not drawn) [Compound 9]
[5]
  inhibition in vivo at 0.25 mg: 98%
[6]
  Duration: 30 min

## CCOC(CN1CCN(c2ccccc2)CC1)c1ccc(C)nc1 (stereo not drawn) [Compound 10]
Cavia porcellus, iv, dose 1 mg, histamine 5 μg/kg i.v.
  inhibition in vivo at 1 mg: 100%
Dose 1 mg, histamine 5 μg/kg i.v.
  Duration: > 60 min

## CCOC(CN1CCN(c2ccccc2OC)CC1)c1ccc(C)nc1 (stereo not drawn) [Compound 11]
[5]
  inhibition in vivo at 0.25 mg: 100%
[6]
  Duration: > 60 min

## COC(CN1CCN(c2ccc(F)cc2)CC1)c1cnc(C)cn1 (stereo not drawn) [Compound 12]
Cavia porcellus, iv, dose 0.5 mg, histamine 5 μg/kg i.v.
  inhibition in vivo at 0.5 mg: 91%
Dose 0.5 mg, histamine 5 μg/kg i.v.
  Duration: > 60 min

## COC(CN1CCN(c2ccccc2)CC1)c1nccnc1C.O=C(O)/C=C/C(=O)O (stereo not drawn) [Compound 14, 1-[2-Methoxy-2-(3-methyl-2-pyrazinyl)-ethyl]-4-phenyl-piperazine fumarate salt]
[1]
  inhibition in vivo at 5 mg: 82%
[2]
  Duration: 45 min

## COc1ccc(N2CCN(CC(OC)c3ccc(C)nc3)CC2)c(OC)c1 (stereo not drawn) [Compound 15]
[3]
  inhibition in vivo at 0.05 mg: 80%
[4]
  Duration: 60 min
Histamine bronchospasm
  antibronchoconstrictory activity (intensity and duration of action), in words: excellent activity

## COC(CN1CCN(c2ccccc2C)CC1)c1ccc(C)nc1 (stereo not drawn) [Compound 16]
[7]
  inhibition in vivo at 0.1 mg: 79%
[8]
  Duration: 45 min
Histamine bronchospasm
  antibronchoconstrictory activity (intensity and duration of action), in words: excellent activity
